# Measurements reported in patent US12195427B2, “MASP-2 inhibitors and methods of use” (priority 2018, dated 2025).
# Molecular target: MASP-2 CCP2-SP (Homo sapiens (Human), UniProt O00187)
# Test: MASP-2 co-crystallization, X-ray crystallography and structure analysis (H-bonds, van der Waals contacts);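 for Ligand-pharmacophore element distance, pharmacophore element C2: distance from averaged pharmacophore element to bound ligand; missing value means element absent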;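 for Ligand-pharmacophore element distance, pharmacophore element C3: distance from averaged pharmacophore element to bound ligand; missing value means element absent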;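 for Ligand-pharmacophore element distance, pharmacophore element C4: distance from averaged pharmacophore element to bound ligand; missing value means element absent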;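 for Ligand-pharmacophore element distance, pharmacophore element C5: distance from averaged pharmacophore element to bound ligand; missing value means element absent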
# Design: van der Waals contact distance, MASP-2 HIS 483 atom CD2 / van der Waals contact distance, MASP-2 HIS 483 atom NE2 / van der Waals contact distance, SER 654 C to compound atom / van der Waals contact distance, SER 654 O to compound atom / van der Waals contact distance, TRP 655 C to compound atom / van der Waals contact distance, MASP-2 GLY 528 atom CA / van der Waals contact distance TRP 655 atom CZ3 / van der Waals contact distance TRP 655 atom N / van der Waals contact distance TRP 655 atom CE3 / van der Waals contact distance GLY 656 atom C / van der Waals contact distance GLY 656 atom CA / van der Waals contact distance GLY 656 atom O / van der Waals contact distance, MASP-2 TYR 607 atom CD1 / van der Waals contact distance, MASP-2 PRO 606 atom O / d(C3,CA1) / d(CA1,N1)2 / d(H4,O1) / d(H4,O2) / d(O1,O2) / d(CA1,O2) / d(CA6,O1) / d(CA6,O2) / d(CA1,C5) / d(O2,H3) / d(N2,C2) / d(CA5,N2) / d(N2,C4) / d(N2,C6) / d(N2,CA3) / d(N2,O3) / d(O4,H2): unit not given beside the values
# Settings: for Ligand-pharmacophore element distance, pharmacophore element C2 / Ligand-pharmacophore element distance, pharmacophore element C3 / Ligand-pharmacophore element distance, pharmacophore element C4 / Ligand-pharmacophore element distance, pharmacophore element C5 / Ligand-pharmacophore element distance, pharmacophore element C6 / Ligand-pharmacophore element distance, pharmacophore element C7 / Ligand-pharmacophore element distance, pharmacophore element CA1 / Ligand-pharmacophore element distance, pharmacophore element CA2 / Ligand-pharmacophore element distance, pharmacophore element CA3 / Ligand-pharmacophore element distance, pharmacophore element CA4 / Ligand-pharmacophore element distance, pharmacophore element CA5 / Ligand-pharmacophore element distance, pharmacophore element CA6: Table A4-1; for d(CA1,N1) / d(CA1,O1) / d(CA1,O2) / d(H4,O1) / d(H4,O2) / d(O1,O2): Table A5-1 pharmacophore: distance between elements, S2/S1 region; for a(CA1, O1, O2) / a(O1, O2, H4) / A(N1, CA1, O1) a): Table A6-1 pharmacophore angle; for A(N1, CA1, O1) a): all compounds with protonatable center N1 except Methyl-amino-pyridine; for Pharmacophore torsion angle a(O1, O2, N2, CA2) / Pharmacophore torsion angle a(O1, O2, N2, CA3) / Pharmacophore torsion angle a(O1, O2, N2, H1) / Pharmacophore torsion angle a(O1, O2, N2, O3): Table A7-2
# Procedure, shortened: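 Contacts and H-bonds come from partially refined soaked-crystal structures of recombinant human CCP2-SP made in E. coli, solved by molecular replacement against 1Q3X fragments. Where several ligand poses appeared, only one was analysed; listed nonbonded contacts may include possible H-bond pairings.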
# [1] = Table A5-2 pharmacophore distance, S3/S4 region
# [2] = Table A7-1, between pharmacophore elements of the bound compound
# [3] = between pharmacophore elements of the bound compound
# [4] = Table A8-6, nearest protein atom in cell to the left
# MASP-2 CCP2-SP, sequence (O00187 445-686): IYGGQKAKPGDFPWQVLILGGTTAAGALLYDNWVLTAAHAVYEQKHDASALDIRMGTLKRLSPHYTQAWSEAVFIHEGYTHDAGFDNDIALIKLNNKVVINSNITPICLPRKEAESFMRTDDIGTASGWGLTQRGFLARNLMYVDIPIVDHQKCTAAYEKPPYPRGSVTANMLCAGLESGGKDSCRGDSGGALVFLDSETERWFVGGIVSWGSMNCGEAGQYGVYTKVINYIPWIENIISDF
# MASP-2 CCP2-SP, sequence (O00187 364-432 partner): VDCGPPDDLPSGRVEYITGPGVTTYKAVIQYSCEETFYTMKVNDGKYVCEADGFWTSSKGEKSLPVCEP
smiles,measurement,setting,value
CC(NC(=O)C(CCc1ccccc1)NCCCc1ccc(O)cc1)C(=O)NCc1ccc(C(=N)N)cc1.Cl.Cl (stereo not shown) [1145_A],"Ligand-pharmacophore element distance, pharmacophore element C2",,0
same,"Ligand-pharmacophore element distance, pharmacophore element C3",,0
same,"Ligand-pharmacophore element distance, pharmacophore element C4",,0
same,"Ligand-pharmacophore element distance, pharmacophore element C5",,0
same,"Ligand-pharmacophore element distance, pharmacophore element C6",,0
same,"Ligand-pharmacophore element distance, pharmacophore element C7",,0
same,"Ligand-pharmacophore element distance, pharmacophore element CA1",,0.47
same,"Ligand-pharmacophore element distance, pharmacophore element CA2",,0.41
same,"Ligand-pharmacophore element distance, pharmacophore element CA3",,1.22
same,"Ligand-pharmacophore element distance, pharmacophore element CA4",,0
same,"Ligand-pharmacophore element distance, pharmacophore element CA5",,0
same,"Ligand-pharmacophore element distance, pharmacophore element CA6",,0
same,"d(CA1,N1)",,3.54
same,"d(CA1,O1)",,4.42
same,"d(CA1,O2)",,4.42
same,"d(H4,O1)",,4.89
same,"d(H4,O2)",,4.48
same,"d(O1,O2)",,3.28
same,"d(N2,CA2)",[1],5.91
same,"d(N2,CA3)",[1],5.59
same,"d(N2,H1)",[1],8.64
same,"d(N2,O3)",[1],7.97
same,"d(O2,H3)",[1],5.36
same,"d(O2,N2)",[1],2.77
same,"a(CA1, O1, O2)",,111.73
same,"a(O1, O2, H4)",,139.31
same,"A(N1, CA1, O1) a)",,162.28
same,"a(O1, O2, H3)",Table A6-2 pharmacophore angle,150.25
same,"a(O1, O2, N2)",Table A6-2 pharmacophore angle,136.24
same,"a(O2, N2, CA2)",Table A6-2 pharmacophore angle,153.28
same,"a(O2, N2, CA3)",Table A6-2 pharmacophore angle,161.48
same,"a(O2, N2, H1)",Table A6-2 pharmacophore angle,168.81
same,"a(O2, N2, O3)",Table A6-2 pharmacophore angle,168.41
same,"Pharmacophore torsion angle a(H4, O1, O2, H3)",[2],48.71
same,"Pharmacophore torsion angle a(H4, O1, O2, N2)",[2],124.15
same,"Pharmacophore torsion angle a(N1, CA1, O2, H4)",[2],−128.41
same,"Pharmacophore torsion angle a(O1, H4, O2, CA1)",[2],−59.90
same,"Pharmacophore torsion angle a(O1, O2, N2, CA2)",[3],140.87
same,"Pharmacophore torsion angle a(O1, O2, N2, CA3)",[3],−15.65
same,"Pharmacophore torsion angle a(O1, O2, N2, H1)",[3],−17.10
same,"Pharmacophore torsion angle a(O1, O2, N2, O3)",[3],−10.98
C[C@H](NC(=O)[C@@H](CCc1ccccc1)NCCCc1ccc(O)cc1)C(=O)NCc1ccc(C(=N)N)cc1.Cl.Cl [1145_B],"Ligand-pharmacophore element distance, pharmacophore element C2",,0
same,"Ligand-pharmacophore element distance, pharmacophore element C3",,0
same,"Ligand-pharmacophore element distance, pharmacophore element C4",,0
same,"Ligand-pharmacophore element distance, pharmacophore element C5",,0
same,"Ligand-pharmacophore element distance, pharmacophore element C6",,0
same,"Ligand-pharmacophore element distance, pharmacophore element C7",,0
same,"Ligand-pharmacophore element distance, pharmacophore element CA1",,0.47
same,"Ligand-pharmacophore element distance, pharmacophore element CA2",,0.41
same,"Ligand-pharmacophore element distance, pharmacophore element CA3",,1.22
same,"Ligand-pharmacophore element distance, pharmacophore element CA4",,0
same,"Ligand-pharmacophore element distance, pharmacophore element CA5",,0
same,"Ligand-pharmacophore element distance, pharmacophore element CA6",,0
same,"d(CA1,N1)",,3.54
same,"d(CA1,O1)",,4.42
same,"d(CA1,O2)",,4.42
same,"d(H4,O1)",,4.89
same,"d(H4,O2)",,4.48
same,"d(O1,O2)",,3.28
same,"d(N2,CA2)",[1],5.91
same,"d(N2,CA3)",[1],5.59
same,"d(N2,H1)",[1],8.68
same,"d(N2,O3)",[1],7.97
same,"d(O2,H3)",[1],5.36
same,"d(O2,N2)",[1],2.77
same,"a(CA1, O1, O2)",,111.73
same,"a(O1, O2, H4)",,139.31
same,"A(N1, CA1, O1) a)",,162.28
same,"a(O1, O2, H3)",Table A6-2 pharmacophore angle,150.25
same,"a(O1, O2, N2)",Table A6-2 pharmacophore angle,136.24
same,"a(O2, N2, CA2)",Table A6-2 pharmacophore angle,153.28
same,"a(O2, N2, CA3)",Table A6-2 pharmacophore angle,161.48
same,"a(O2, N2, H1)",Table A6-2 pharmacophore angle,168.66
same,"a(O2, N2, O3)",Table A6-2 pharmacophore angle,168.41
same,"Pharmacophore torsion angle a(H4, O1, O2, H3)",[2],48.71
same,"Pharmacophore torsion angle a(H4, O1, O2, N2)",[2],124.15
same,"Pharmacophore torsion angle a(N1, CA1, O2, H4)",[2],−128.41
same,"Pharmacophore torsion angle a(O1, H4, O2, CA1)",[2],−59.90
same,"Pharmacophore torsion angle a(O1, O2, N2, CA2)",[3],140.87
same,"Pharmacophore torsion angle a(O1, O2, N2, CA3)",[3],−15.65
same,"Pharmacophore torsion angle a(O1, O2, N2, H1)",[3],−15.97
same,"Pharmacophore torsion angle a(O1, O2, N2, O3)",[3],−10.98
CC(NC(=O)C(CCc1ccccc1)NCc1ccc(C(=O)N2CCOCC2)cc1)C(=O)NCc1ccc(C(=N)N)cc1.Cl.Cl (stereo not shown) [1153_A],"Ligand-pharmacophore element distance, pharmacophore element C2",,8.69
same,"Ligand-pharmacophore element distance, pharmacophore element C3",,0
same,"Ligand-pharmacophore element distance, pharmacophore element C4",,0
same,"Ligand-pharmacophore element distance, pharmacophore element C5",,0
same,"Ligand-pharmacophore element distance, pharmacophore element C6",,0
same,"Ligand-pharmacophore element distance, pharmacophore element C7",,0
same,"Ligand-pharmacophore element distance, pharmacophore element CA1",,0.43
same,"Ligand-pharmacophore element distance, pharmacophore element CA2",,0.34
same,"Ligand-pharmacophore element distance, pharmacophore element CA3",,4.19
same,"Ligand-pharmacophore element distance, pharmacophore element CA4",,0
same,"Ligand-pharmacophore element distance, pharmacophore element CA5",,0
same,"Ligand-pharmacophore element distance, pharmacophore element CA6",,0
same,"d(CA1,N1)",,3.54
same,"d(CA1,O1)",,5.79
same,"d(CA1,O2)",,4.38
same,"d(H4,O1)",,6.25
same,"d(H4,O2)",,4.36
same,"d(O1,O2)",,4.62
same,"d(N2,C2)",[1],8.34
same,"d(N2,CA2)",[1],6.18
same,"d(N2,CA3)",[1],3.78
same,"d(N2,O3)",[1],7.78
same,"d(O2,H3)",[1],2.71
same,"d(O2,N2)",[1],2.88
same,"a(CA1, O1, O2)",,99.83
same,"a(O1, O2, H4)",,132.39
same,"A(N1, CA1, O1) a)",,174.13
same,"a(O1, O2, H3)",Table A6-2 pharmacophore angle,138.79
same,"a(O1, O2, N2)",Table A6-2 pharmacophore angle,132.96
same,"a(O2, N2, C2)",Table A6-2 pharmacophore angle,168.69
same,"a(O2, N2, CA2)",Table A6-2 pharmacophore angle,152.46
same,"a(O2, N2, CA3)",Table A6-2 pharmacophore angle,157.4
same,"a(O2, N2, O3)",Table A6-2 pharmacophore angle,167.7
same,"Pharmacophore torsion angle a(H4, O1, O2, H3)",[2],86.11
same,"Pharmacophore torsion angle a(H4, O1, O2, N2)",[2],97.90
same,"Pharmacophore torsion angle a(N1, CA1, O2, H4)",[2],−11.60
same,"Pharmacophore torsion angle a(O1, H4, O2, CA1)",[2],15.20
same,"Pharmacophore torsion angle a(O1, O2, N2, C2)",[2],30.40
same,"Pharmacophore torsion angle a(O1, O2, N2, CA2)",[3],116.41
same,"Pharmacophore torsion angle a(O1, O2, N2, CA3)",[3],24.87
same,"Pharmacophore torsion angle a(O1, O2, N2, O3)",[3],43.95
same,Pharmacophore protein distance to MET_658 (first MET_658 column),"Table A8-6, 6th residue column, nearest protein atom in cell to the left",2.53
same,Pharmacophore protein distance to MET_658 (second MET_658 column),"Table A8-6, 9th residue column, nearest protein atom in cell to the left",3.26
same,Pharmacophore protein distance to GLY_528,[4],3.41
same,Pharmacophore protein distance to PHE_529,[4],3.23
same,Pharmacophore protein distance to PRO_608,[4],4.41
same,Pharmacophore protein distance to SER_611,[4],2.46
same,Pharmacophore protein distance to TRP_655,"Table A8-6, pharmacophore elements C6, CA3, O3, H1, nearest protein atom in cell to the left",3.42
